Measured values published in paper PMC8376047, “Complexation of uranyl (UO2)^2+ with bidentate ligands: XRD, spectroscopic, computational, and biological studies” (PLoS ONE, 2021).

Experiments:
Experiment in all cases: UV-Vis absorption titration (Kb) and tryptophan fluorescence quenching (KSV […])
Format in all cases: binding
[1] = target: T1, human serum albumin (HSA) (Homo sapiens, UniProt P02768)
T1 construct: gene ALB

[2] = target: T1, human serum albumin (HSA); remark: listed apart in the source
[3] = target: T1, human serum albumin (HSA); remark: listed apart in the source

T1 sequence (P02768 25-609): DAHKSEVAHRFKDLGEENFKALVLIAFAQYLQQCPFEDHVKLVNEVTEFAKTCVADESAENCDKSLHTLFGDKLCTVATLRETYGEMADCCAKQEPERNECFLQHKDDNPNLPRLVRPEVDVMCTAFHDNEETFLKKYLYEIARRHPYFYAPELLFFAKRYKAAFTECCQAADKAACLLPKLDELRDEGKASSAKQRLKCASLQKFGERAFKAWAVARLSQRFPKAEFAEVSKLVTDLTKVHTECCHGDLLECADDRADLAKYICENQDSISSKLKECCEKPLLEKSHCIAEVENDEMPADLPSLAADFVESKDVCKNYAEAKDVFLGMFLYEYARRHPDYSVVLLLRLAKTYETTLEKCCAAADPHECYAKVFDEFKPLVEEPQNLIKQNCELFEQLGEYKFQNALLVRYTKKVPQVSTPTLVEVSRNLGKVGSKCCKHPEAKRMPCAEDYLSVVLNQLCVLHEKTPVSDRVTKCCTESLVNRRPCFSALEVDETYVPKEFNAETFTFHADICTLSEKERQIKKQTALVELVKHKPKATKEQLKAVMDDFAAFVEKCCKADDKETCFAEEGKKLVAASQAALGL

[(UO2)(OAc)2(CMZ)]
UV-Vis absorption titration (Kb) and tryptophan fluorescence quenching (KSV 7.2×) [1]: 2.10×10^5

[(UO2)(OAc)2(SCZ)]
UV-Vis absorption titration (Kb) and tryptophan fluorescence quenching (KSV 9.46) [2]: 7×10^4

[(UO2)(OAc)2(MP)]
UV-Vis absorption titration (Kb) and tryptophan fluorescence quenching (KSV 9.75) [3]: 2.26×10^5
